Test results: patent US20240360178A1, “MACROCYCLIC IMMUNOMODULATORS” (Bristol-Myers Squibb Company, priority 2021, published 2024)
pIC50: −log10 of the molar value. Positions of bridges follow the written chain, without caps; N, C: chain ends. Non-standard residues stand in square brackets, D forms with d. Residues, ends and D or L forms follow the SMILES beside them. ξ: configuration not given here. Bip = N[C@@H](Cc1ccc(-c2ccccc2)cc1)C(=O)O; Phe(4-CN) = N#Cc1ccc(C[C@H](N)C(=O)O)cc1; 1Nal = N[C@@H](Cc1cccc2ccccc12)C(=O)O; NMeF = CN[C@@H](Cc1ccccc1)C(=O)O; hArg = N=C(N)NCCCC[C@H](N)C(=O)O; Cit = NC(=O)NCCC[C@H](N)C(=O)O; Phg = N[C@H](C(=O)O)c1ccccc1; Tle = CC(C)(C)[C@H](N)C(=O)O; hSer = N[C@@H](CCO)C(=O)O; NMeA = CN[C@@H](C)C(=O)O; Orn = NCCC[C@H](N)C(=O)O; Dab = NCC[C@H](N)C(=O)O; ξS = NC(CO)C(=O)O; Sar = CNCC(=O)O

What follows are molecules tested against T1, human PD-1 (Jurkat-PD-1 cells) / PE-labeled human PD-L1-Ig (Homo sapiens, UniProt Q15116) (assay: Jurkat-PD-1 Cell Binding High-Content Screening Assay (CBA); Jurkat hPD1-PDL1 assay). Conditions: Jurkat cell line over-expressing human PD-1; PE-labeled PD-L1-Ig 20 nM final; compound incubated 2 hours at 37° C.; read-out: Jurkat HPD1-PDL1 IC50.
T1 construct: expressed in transfected cells; host or cells: Jurkat cell line over-expressing human PD-1
How it was run: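 Jurkat-hPD-1 cells; cpd 2 h, 37° C; then PE-PD-L1-Ig 20 nM final in DMEM/10% FCS; high-content imaging read-out.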

T1 sequence (Q15116 25-288): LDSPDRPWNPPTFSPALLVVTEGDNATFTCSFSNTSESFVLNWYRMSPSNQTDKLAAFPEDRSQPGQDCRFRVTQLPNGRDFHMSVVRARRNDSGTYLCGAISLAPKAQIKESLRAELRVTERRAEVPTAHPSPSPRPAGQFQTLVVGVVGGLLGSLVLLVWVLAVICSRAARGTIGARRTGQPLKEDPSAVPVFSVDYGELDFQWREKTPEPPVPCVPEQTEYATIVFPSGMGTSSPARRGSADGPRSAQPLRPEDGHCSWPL

pIC50	Compound
6.37	CC(C)C[C@@H]1NC(=O)[C@H](CCCNC(=N)N)NC(=O)[C@H](Cc2ccccc2)N(C)C(=O)[C@H](C)N(C)C(=O)[C@H](CCCNC(=N)N)NC(=O)[C@H](Cc2ccc(-c3ccccc3)cc2)NC(=O)[C@H](c2ccccc2)NC(=O)[C@H](Cc2c[nH]c3ccccc23)NC(=O)[C@H](CC(=O)O)NC(=O)[C@H](Cc2ccc(O)cc2)NC(=O)[C@H](Cc2ccccc2)NC(=O)CSC[C@@H](C(=O)NCC(N)=O)NC(=O)[C@H](CO)NC(=O)[C@H](C(C)C)NC1=O [Example 1334] ({CH2CO}-FYDW[Phg][Bip]R[NMeA][NMeF]RLVSCG-NH2; thioether N-14)
6.03	CC(C)C[C@@H]1NC(=O)[C@H](CCCNC(=N)N)NC(=O)[C@H](Cc2ccccc2)N(C)C(=O)[C@@H](C)NC(=O)[C@H](CCCNC(=N)N)NC(=O)[C@H](Cc2ccc(-c3ccccc3)cc2)NC(=O)[C@H](C(C)C)NC(=O)[C@H](Cc2c[nH]c3ccccc23)NC(=O)[C@H](CC(=O)O)NC(=O)[C@H](Cc2ccc(O)cc2)NC(=O)[C@H](CC(N)=O)NC(=O)CSC[C@@H](C(=O)N[C@@H](C)C(N)=O)NC(=O)[C@H]([C@@H](C)O)NC(=O)[C@H](C(C)C)NC1=O [Example 1363] ({CH2CO}-NYDWV[Bip]R[dA][NMeF]RLVTCA-NH2; thioether N-14)
6.72	CC(C)C[C@@H]1NC(=O)[C@H](CCCNC(=N)N)NC(=O)[C@H](Cc2ccccc2)N(C)C(=O)[C@H](C)N(C)C(=O)[C@H](CCCCNC(=N)N)NC(=O)[C@H](Cc2ccc(-c3ccccc3)cc2)NC(=O)[C@H](C(C)C)NC(=O)[C@H](Cc2c[nH]c3ccccc23)NC(=O)[C@H](CC(=O)O)NC(=O)[C@H](Cc2ccc(O)cc2)NC(=O)[C@H](Cc2ccccc2)NC(=O)CSC[C@@H](C(=O)NCC(N)=O)NC(=O)[C@H](CO)NC(=O)[C@H](C(C)C)NC1=O [Example 1244] ({CH2CO}-FYDWV[Bip][hArg][NMeA][NMeF]RLVSCG-NH2; thioether N-14)
6.85	CC(C)C[C@@H]1NC(=O)CSC[C@@H](C(=O)NCC(N)=O)NC(=O)[C@H](CO)NC(=O)[C@H](C(C)C)NC(=O)[C@H](CC(C)C)NC(=O)[C@H](CCCNC(=N)N)NC(=O)[C@H](Cc2ccccc2)N(C)C(=O)[C@H](C)N(C)C(=O)[C@H](CCCN)NC(=O)[C@H](Cc2ccc(-c3ccccc3)cc2)NC(=O)[C@H](C(C)C)NC(=O)[C@H](Cc2c[nH]c3ccccc23)NC(=O)[C@H](CC(=O)O)NC(=O)[C@H](Cc2ccc(O)cc2)NC1=O [Example 1290] ({CH2CO}-LYDWV[Bip][Orn][NMeA][NMeF]RLVSCG-NH2; thioether N-14)
6.08	CC(C)C[C@@H]1NC(=O)[C@H](C)NC(=O)CN(C)C(=O)[C@H](C)N(C)C(=O)[C@H](C(C)C)NC(=O)[C@H](Cc2ccc(-c3ccccc3)cc2)NC(=O)[C@H](CC(C)C)NC(=O)[C@H](Cc2c[nH]c3ccccc23)NC(=O)[C@H](CC(=O)O)NC(=O)[C@H](Cc2ccc(O)cc2)NC(=O)[C@H](Cc2ccccc2)NC(=O)CSC[C@@H](C(=O)N[C@@H](C)C(N)=O)NC(=O)[C@H](CO)NC(=O)[C@H](C(C)C)NC1=O [Example 1158] ({CH2CO}-FYDWL[Bip]V[NMeA][Sar]ALVSCA-NH2; thioether N-14)
6.21	CC(C)C[C@@H]1NC(=O)[C@H](CCCNC(=N)N)NC(=O)[C@H](Cc2ccccc2)N(C)C(=O)[C@H](C)N(C)C(=O)[C@H](CCCNC(=N)N)NC(=O)[C@H](Cc2ccc(-c3ccccc3)cc2)NC(=O)[C@H](C(C)C)NC(=O)[C@H](Cc2c[nH]c3ccccc23)NC(=O)[C@H](CC(=O)O)NC(=O)[C@H](Cc2ccc(O)cc2)NC(=O)[C@H](Cc2ccccc2)NC(=O)CSC[C@@H](C(=O)NCC(N)=O)NC(=O)[C@H](CO)NC(=O)[C@H](C(C)(C)C)NC1=O [Example 1143] ({CH2CO}-FYDWV[Bip]R[NMeA][NMeF]RL[Tle]SCG-NH2; thioether N-14)
6.59	COCC[C@@H]1NC(=O)[C@H](C(C)C)NC(=O)[C@H](CC(C)C)NC(=O)[C@H](CCCNC(=N)N)NC(=O)[C@H](Cc2ccccc2)N(C)C(=O)[C@H](C)N(C)C(=O)[C@H](CCCNC(=N)N)NC(=O)[C@H](Cc2ccc(-c3ccccc3)cc2)NC(=O)[C@H](C(C)C)NC(=O)[C@H](Cc2c[nH]c3ccccc23)NC(=O)[C@H](CC(=O)O)NC(=O)[C@H](Cc2ccc(O)cc2)NC(=O)[C@H](Cc2ccccc2)NC(=O)CSC[C@@H](C(=O)NCC(N)=O)NC1=O [Example 1259] ({CH2CO}-FYDWV[Bip]R[NMeA][NMeF]RLV[hSer](Me)CG-NH2; thioether N-14)
7.40	CC(C)C[C@@H]1NC(=O)[C@H](Cc2c[nH]c3ccccc23)NC(=O)[C@H](CC(=O)O)NC(=O)[C@H](Cc2ccc(O)cc2)NC(=O)[C@H](Cc2ccccc2)NC(=O)CSC[C@@H](C(=O)N[C@@H](C)C(N)=O)NC(=O)[C@H](CO)NC(=O)[C@H](C(C)C)NC(=O)[C@H](CC(C)C)NC(=O)[C@H](CCN)NC(=O)[C@H]2CCCN2C(=O)[C@H](C)N(C)C(=O)[C@H](C(C)C)NC(=O)[C@H](Cc2ccc(-c3ccccc3)cc2)NC1=O [Example 1397] ({CH2CO}-FYDWL[Bip]V[NMeA][dP][Dab]LVSCA-NH2; thioether N-14)
6.43	CC(C)C[C@@H]1NC(=O)[C@H](CC(N)=O)NC(=O)[C@H](Cc2ccccc2)N(C)C(=O)[C@H](C)N(C)C(=O)[C@H](C(C)C)NC(=O)[C@H](Cc2ccc(-c3ccccc3)cc2)NC(=O)[C@H](C(C)C)NC(=O)[C@H](Cc2c[nH]c3ccccc23)NC(=O)[C@H](CC(=O)O)NC(=O)[C@H](Cc2ccc(O)cc2)NC(=O)[C@H](Cc2ccccc2)NC(=O)CSC[C@@H](C(=O)N[C@@H](C)C(N)=O)NC(=O)[C@H](CO)NC(=O)[C@H](C(C)C)NC1=O [Example 1112] ({CH2CO}-FYDWV[Bip]V[NMeA][NMeF]NLVSCA-NH2; thioether N-14)
6.68	CC(C)C[C@@H]1NC(=O)[C@H](CCCCN)NC(=O)[C@H](Cc2ccccc2)N(C)C(=O)[C@H](C)N(C)C(=O)[C@H](CCCNC(=N)N)NC(=O)[C@H](Cc2ccc(-c3ccccc3)cc2)NC(=O)[C@H](C(C)C)NC(=O)[C@H](Cc2c[nH]c3ccccc23)NC(=O)[C@H](CC(=O)O)NC(=O)[C@H](Cc2ccc(O)cc2)NC(=O)[C@H](CC(N)=O)NC(=O)CSC[C@@H](C(=O)N[C@@H](CO)C(N)=O)NC(=O)[C@H]([C@@H](C)O)NC(=O)[C@H](C(C)C)NC1=O [Example 1354] ({CH2CO}-NYDWV[Bip]R[NMeA][NMeF]KLVTCS-NH2; thioether N-14)
6.96	CC(C)C[C@@H]1NC(=O)[C@H](CCCNC(=N)N)NC(=O)[C@H](Cc2ccccc2)N(C)C(=O)[C@H](C)N(C)C(=O)[C@H](CCC(=O)O)NC(=O)[C@H](Cc2ccc(-c3ccccc3)cc2)NC(=O)[C@H](C(C)C)NC(=O)[C@H](Cc2c[nH]c3ccccc23)NC(=O)[C@H](CC(=O)O)NC(=O)[C@H](Cc2ccc(O)cc2)NC(=O)[C@H](CC(N)=O)NC(=O)CSC[C@@H](C(=O)N[C@@H](C)C(N)=O)NC(=O)[C@H](CCCN)NC(=O)[C@H](C(C)C)NC1=O [Example 1378] ({CH2CO}-NYDWV[Bip]E[NMeA][NMeF]RLV[Orn]CA-NH2; thioether N-14)
6.55	CC(C)C[C@@H]1NC(=O)[C@H](Cc2c[nH]c3ccccc23)NC(=O)[C@H](CC(=O)O)NC(=O)[C@H](Cc2ccc(O)cc2)NC(=O)[C@H](Cc2ccccc2)NC(=O)CSC[C@@H](C(=O)N[C@@H](C)C(N)=O)NC(=O)[C@H](CO)NC(=O)[C@H](C(C)C)NC(=O)[C@H](CC(C)C)NC(=O)[C@H](CCCNC(=N)N)NC(=O)[C@H]2CCCN2C(=O)[C@H](C)N(C)C(=O)[C@H](CCCNC(=N)N)NC(=O)[C@H](Cc2ccc(-c3ccccc3)cc2)NC1=O [Example 1096] ({CH2CO}-FYDWL[Bip]R[NMeA][dP]RLVSCA-NH2; thioether N-14)
6.77	CC(C)C[C@@H]1NC(=O)[C@H](CCCNC(=N)N)NC(=O)[C@H](Cc2ccccc2)N(C)C(=O)[C@H](C)N(C)C(=O)[C@H](CCCNC(=N)N)NC(=O)[C@H](Cc2ccc(-c3ccccc3)cc2)NC(=O)[C@H](C(C)C)NC(=O)[C@H](Cc2cccc3ccccc23)NC(=O)[C@H](CC(=O)O)NC(=O)[C@H](Cc2ccc(O)cc2)NC(=O)[C@H](Cc2ccccc2)NC(=O)CSC[C@@H](C(=O)NCC(N)=O)NC(=O)[C@H](CO)NC(=O)[C@H](C(C)C)NC1=O [Example 1240] ({CH2CO}-FYD[1Nal]V[Bip]R[NMeA][NMeF]RLVSCG-NH2; thioether N-14)
6.96	CC(C)C[C@@H]1NC(=O)[C@H](CCCNC(=N)N)NC(=O)[C@H](Cc2ccccc2)N(C)C(=O)[C@H](C)N(C)C(=O)[C@H](CCCNC(N)=O)NC(=O)[C@H](Cc2ccc(-c3ccccc3)cc2)NC(=O)[C@H](C(C)C)NC(=O)[C@H](Cc2c[nH]c3ccccc23)NC(=O)[C@H](CC(=O)O)NC(=O)[C@H](Cc2ccc(O)cc2)NC(=O)[C@H](Cc2ccccc2)NC(=O)CSC[C@@H](C(=O)NCC(N)=O)NC(=O)[C@H](CO)NC(=O)[C@H](C(C)C)NC1=O [Example 1245] ({CH2CO}-FYDWV[Bip][Cit][NMeA][NMeF]RLVSCG-NH2; thioether N-14)
6.31	CC(C)C[C@@H]1NC(=O)[C@H](Cc2c[nH]c3ccccc23)NC(=O)[C@H](CC(=O)O)NC(=O)[C@H](Cc2ccc(O)cc2)NC(=O)[C@H](Cc2ccc(C#N)cc2)NC(=O)CSC[C@@H](C(=O)NCC(N)=O)NC(=O)[C@H](CO)NC(=O)[C@H](C(C)C)NC(=O)[C@H](CC(C)C)NC(=O)[C@H](CC(N)=O)NC(=O)CN(C)C(=O)[C@H](C)N(C)C(=O)[C@H](C(C)C)NC(=O)[C@H](Cc2ccc(-c3ccccc3)cc2)NC1=O [Example 1128] ({CH2CO}-[Phe(4-CN)]YDWL[Bip]V[NMeA][Sar]NLVSCG-NH2; thioether N-14)
7.10	CC(C)C[C@@H]1NC(=O)[C@H](Cc2c[nH]c3ccccc23)NC(=O)[C@H](CC(=O)O)NC(=O)[C@H](Cc2ccc(O)cc2)NC(=O)[C@H](Cc2ccccc2)NC(=O)CSC[C@@H](C(=O)N[C@@H](C)C(N)=O)NC(=O)C(CO)NC(=O)[C@H](C(C)C)NC(=O)[C@H](CC(C)C)NC(=O)[C@H](CCN)NC(=O)[C@H]2CCCN2C(=O)[C@H](CCN)NC(=O)[C@H](C(C)C)NC(=O)[C@H](Cc2ccc(-c3ccccc3)cc2)NC1=O (stereo partly shown) [Example 1415] ({CH2CO}-FYDWL[Bip]V[Dab][dP][Dab]LV[ξS]CA-NH2; thioether N-14)
